Assay results from PMC5004293, “Characterization of FRM-36143 as a new γ-secretase modulator for the potential treatment of familial Alzheimer’s disease” (Alzheimer's Research & Therapy, 2016).

Legend:
γ-secretase [1] = experiment: Population PK/PD modeling of mouse brain Aβ42 reduction; assay type: in vivo; settings: population PK/PD model, mice
Protocol: Mice and rats were maintained on 12/12 h light/dark cycle with food available ad libitum. Drug treatment was prepared in a vehicle of 1 % carboxymethylcellulose (CMC):Tween80 (99.5:0.5). Twelve-week-old wild-type male mice (129S6, Taconic Biosciences, Hudson, NY, USA) or rats (Wistar, Charles River Laboratories) were administered compound p.o. without prior fasting and euthanized by CO2 asphyxiation at specified times post-dosing. After extraction of the brain, the olfactory bulb and hindbrain were removed and the cerebral hemispheres separated (mice) or cut in 4 pieces (rats). The cerebellum was removed for bioanalysis of the compound. CSF was collected from the cisterna magna and blood from a cardiac puncture.
A population pharmacokinetic/pharmacodynamic (PK/PD) analysis was performed to obtain maximal efficacy (Emax) and concentration leading to 50 % of Emax (EC50) using the Phoenix® NLME™ (NonLinear Mixed Effect) program (version 6.3, Certara USA, Inc., St. Louis, MO). The goodness of fit was assessed based on visual inspection of curve fitting, Akaike’s information criterion (AIC), and precision of parameter estimation.

γ-secretase [2] = target: T1, γ-secretase (Homo sapiens, UniProt P49768); experiment: Aβ in media and intracellular small peptides of HEK cells expressing APPsw and WT presenilin; assay type: cell-based; settings: HEK APPsw, 1 μM
T1 construct: expressed in transfected cells; host or cells: HEK cells stably expressing APPsw and WT PS1
Protocol: Aβ peptide levels were quantified by sandwich ELISA using anti-Aβ38, anti-Aβ40, anti-Aβ42, (BioLegend, Dedham, MA, USA) or anti-Aβ37 for the capture and 4G8-horseradish peroxidase (HRP; BioLegend) for detection. When measuring Aβ37 and Aβ38, 4G8-HRP was added to the sample for overnight incubation, whereas it was added after the overnight incubation for 1 h for Aβ40 and Aβ42 measurements.
For cell-based assays, freshly collected samples of cultured cell supernatant were added to the plates and incubated at 4 °C for about 24 h. Detection was performed using SureBlue 3,3’,5,5’-tetramethylbenzidine (TMB) peroxidase substrate (KPL, Inc., Gaithersburg, MD, USA) and the plates read on a SpectraMax M5e microplate reader (Molecular Devices, Inc., Sunnyvale, CA, USA). GSM-treated samples were normalized to samples treated with DMSO alone (100 %) and 5 μM GSI, DAPT (0 %; Sigma-Aldrich). EC50 values were calculated from values reported as percentage of DMSO using nonlinear regression, based on a sigmoidal dose–response (variable slope) model.
The extractions were performed according to the methods described by Okochi et al.. Briefly, human embryonic kidney (HEK) cells stably expressing APPsw and PS1 derivatives were cultured to confluence in 10-cm dishes and the media replaced on the day of the experiment. […] Conditioned media were collected and cells were washed with ice-cold PBS and then immediately boiled for 2 min. A monitoring peptide (IVTL) and protease inhibitors were then added to the boiled samples, which were sonicated for 5 s three times and centrifuged at 100,000 × g for 1 h. The resultant supernatants were precipitated with TCA on ice for 15 min, centrifuged at 100,000 × g for 1 h, and filtered before being subjected to LC-MS/MS analysis to measure the tri-, tetra-, and pentapeptides as described elsewhere.

Notch processing = experiment: Notch reporter assay (HeLa 6xCBF1-Luc, NotchΔE); assay type: cell-based, human; settings: Homo sapiens, overnight
Protocol: The wild-type CBF1 binding element was cloned in front of the SV40 promoter-driven luciferase reporter construct of pGL3pro (Promega, Madison, WI, USA) using the following oligonucleotides: • CBF1 Fw (5’→3’): […] • CBF1 Rv (5’→3’): […]
Oligonucleotides were phosphorylated using T4 polynucleotide kinase and annealed (by heating to 90 °C and cooling to room temperature in a buffer containing 0.1 M NaCl). Plasmid pGL3pro was cleaved with BglII and dephosphorylated using alkaline phosphatase. The oligonucleotide pair was then ligated using T4 ligase with the linearized plasmid DNA. A clone containing 6 copies of the CBF1 element in front of the SV40 promoter was chosen. The 6xCBF1-RE/SV40 promoter was excised from pGL3 using XhoI and HindIII, and the fragment transferred to the pGL4.17 [luc2/Neo] vector (Promega) was opened with the same restriction enzymes.
The full length human Notch in plasmid pCMV6-XL5 (Origene, Rockville, MD, USA) was used to amplify a truncated form of Notch (NotchΔE) containing the 20-amino-acid (a.a.) signal sequence followed by 5 a.a. […]
HeLa cells stably transfected with the 6xCBF1-Luc reporter were transiently transfected with the NotchΔE construct (4 μg DNA/10^6 cells) using Lipofectamine 2000 (Thermo Fisher, Waltham, MA, USA) in 6-well plates. […] Chemiluminescence was then read on an EnVision plate reader (Perkin Elmer).

## COc1nc(C2=NOC[C@H](c3cc4ccccc4o3)N2)ccc1-n1cnc(C)c1 [FRM-36143, (R)-5-(benzofuran-2-yl)-3-(6-methoxy-5-(4-methyl-1H-imidazol-1-yl)pyridin-2-yl)-5,6-dihydro-4H-1,2,4-oxadiazine]
γ-secretase [1]; 30 mg/kg data
  Maximal brain Aβ42 reduction (Emax): 51%
γ-secretase [1]; 30 mg/kg data only, CV: 15 %
  Emax for effect on brain Aβ42: 0.51
γ-secretase [1]; 30 mg/kg, unbound plasma concentration, 2.5–97.5 % CI 4.6–151 nM, read-out: In vivo EC50 for Aβ42
  EC50: 78 nM
γ-secretase [2]; 2 h, DMSO 154 ± 2
  Aβ42 concentration in the media: 105 ± 2 pM
γ-secretase [2]; 2 h, DMSO 750 ± 62
  Aβ38 concentration in the media: 1548 ± 39 pM
γ-secretase [2]; 2 h, DMSO 4021 ± 132
  Aβ40 concentration in the media: 3477 ± 120 pM
γ-secretase [2]; 2 h, DMSO 4925 ± 185
  Aβtotal concentration in the media (Aβ38 + Aβ40 + Aβ42): 5130 ± 92 pM
γ-secretase [2]; LC-MS/MS
  Intracellular production of small peptides VVIA and VVIAT (fourth cleavage step): increases the production of VVIA and VVIAT
Notch processing
  IC50: > 10000 nM
